Laboratory results as given in publication PMC4838890, “Dynamic and flexible H3K9me3 bridging via HP1β dimerization establishes a plastic state of condensed chromatin” (Nature Communications, 2016).
“Also recorded” adds a separate entry of the source.

Tests used:
H3K9me3 oligonucleosomes = assay: Chromatin coprecipitation, H3K9me3 oligonucleosomes; assay type: binding, Xenopus laevis; conditions: chromatin coprecipitation, 5 mM MgCl2
Experimental: (§1) 6.7 nM oligonucleosomes were incubated with 1 μM recombinant protein in 100 μl binding buffer (10 mM triethanolamine (pH 7.5), 150 mM NaCl, 5 mM MgCl2, 0.1 mM EDTA, 0.1% (v/v) Triton-X100) for 1 h on ice. Precipitated chromatin complexes were recovered by centrifugation at 16,100g for 30 min at 4°C. Pellets were washed once with 0.5 ml binding buffer and centrifuged for 15 min at 4 °C. Precipitated material was resuspended in 10 μl 1 × SDS loading buffer and boiled for 5 min before running on SDS–PAGE.
(§2) Supplementary Table 1: Summary of conditions used in the different experiments of this study.
(§3) experiment result modification template Temp. [NaCl] [MgCl2]
(§4) chromatin Fig. 1e,f; Fig. S1f-h; H3K9me3 oligo- 4 150 5

[1] = tested on: H3K9me0 and H3K9me3 chromatin; conditions: cited from earlier work
Description: In our model, modulation of the general chromatin-binding mode is brought about by varying sequences in the HR and NT domains as well as possibly their post-translational modification in other HP1 proteins (different variants, different species). We think that within these regions the overall charge but not a particular sequence is mainly dictating the chromatin-binding properties.

DNA fragment of 150 bp = assay: Electrophoretic mobility shift assay (EMSA); assay type: binding; conditions: 150 bp DNA, 0, 3, 9 μM protein, 100 mM NaCl, 5 mM MgCl2, RT
Experimental: 50 ng 150 bp DNA amplified from the backbone of pUC18 was incubated with 0, 3, 9 μM recombinant protein in 10 μl EMSA buffer (10 mM Tris-HCl (pH 8.0), 100 mM NaCl, 5 mM MgCl2) for 20 min at room temperature (RT). 2 μl 50% (v/v) glycerol was added and samples were loaded onto 6% native PAGE gels. After electrophoresis, DNA was visualized by staining with 1 × SYBR Gold/0.25 × TBE for 20 min at RT. Images were captured using a ChemiDoc MP Imaging System (Bio-Rad, München, Germany). […]
crosslinking Fig. S6e,f nucleosomes […]
crosslinking Fig. S7a,b nucleosomes
EMSA Fig. 1g; Fig. 5c; n//a RT 100 5
1Preincubation of oligonucleosomes and h HP1β was performed at 4 °C . Measurements wer e carried out at the in dicated te mperature.
2in increments o f 0 .5 mM
3MgCl2 was added at the end of incubation to coprecipitate oligonucleosomes a nd bound hHP1β.

[2] = tested on: H3KC9me3 oligonucleosomes; assay: Chromatin coprecipitation, H3KC9me3 oligonucleosomes; assay type: binding, Xenopus laevis
Experimental: as §1, §2, §3, §4

[3] = tested on: mouse embryonic stem cells (mESC); assay: ChIP-seq genome-wide correlation with H3K9me3; assay type: cell-based
Experimental: For crosslink MNase ChIP of HP1β, 10^7 TT2 WT mouse ES cells were collected. Cells were crosslinked with 1% (v/v) formaldehyde in 10 ml of PBS for 10 min at RT, then quenched with 0.125 M glycine for 5 min. Cells were washed 1 × with PBS, and resuspended in 1 ml of EZ Nuclei Isolation Buffer (Sigma-Aldrich, Steinheim, Germany). The cytoplasmic supernatant was discarded and the pellet was flash frozen with liquid N2. […]
A third of ChIP and input DNA (10–20 ng total) underwent end repair with T4 and Klenow, A-tailing and adaptor ligation. […] Resulting PCR was then purified on 2% EX Gel (Life Technologies, Carlsbad, USA) at the 200–700 bp range, and quantified on Qubit and Agilent Tapestation. […]
Following published data sets were downloaded from NCBI/GEO for this study: SPR899601/ H3K9me3 SETDB1^f/− and SPR899602/H3K9me3 SETDB1^−/− both done with anti-H3K9me3 antibody (ab8898)[36]. Reads were processed and aligned to the mouse reference genome (mm9) using QuasR in R. Genomic alignment was performed twice using BOWTIE with the following parameters: --strata, --best and -m 1 or -m 99 to account for reads that map uniquely or up to 99 times in the mouse genome, respectively. For genome-wide comparisons, only uniquely mapping reads were used. Reads mapping up to 99 times were used for ERV analysis and genome browser visualization. […]

Substance: hHP1α WT: recombinant human HP1α (GenBank BC006821) [reference compound]
- specificity for H3K9me3 (H3K9me3 oligonucleosomes): much less specificity for H3K9me3 compared with hHP1β
- discrimination between H3K9me0 and H3K9me3 chromatin ([1]; ref [12]): limited discrimination between H3K9me0 and H3K9me3 chromatin
- DNA binding (DNA fragment of 150 bp): high level of general DNA binding

Substance: Swi6: S. pombe HP1 protein
- recovery with H3KC9me3 oligonucleosomes ([2]; 6.7 nM oligonucleosomes, 1 μM protein, 150 mM NaCl, 5 mM MgCl2): specificity of Swi6 association with H3K9me0 and H3K9me3 oligonucleosomes increased significantly when the chromatin was more saturated; also recorded: recovered to a higher degree in H3K9me3 chromatin coprecipitation compared with hHP1β
- molecules bound per nucleosome ([2]; saturating protein concentrations): approximately four
- binding to unmodified chromatin ([1]; ref [29]): more pronounced binding to unmodified chromatin

Substance: mHP1β: endogenous mouse HP1β; sequence identical to human HP1β
- H3K9me3 loss on SETDB1 deletion at mHP1β-enriched sites ([3]; conditional SETDB1 deletion, H3K9me3 data ref [36]): the strongest loss of H3K9me3 occurred at sites enriched for mHP1β in WT cells
- Pearson's R, genome-wide correlation with H3K9me3 ([3]; endogenous mHP1β, antibody-based ChIP-seq, 1 kb windows): 0.77
